Where a SMILES comes first, the peptide text is derived from it.

For one experiment, the target named is T1, prolyl endopeptidase (Bos taurus, UniProt Q9XTA2).
T1 construct: prolyl endopeptidase which was purified from bovine brain; from tissue; host or cells: bovine brain (purified enzyme)
T1 sequence (Q9XTA2 whole entry): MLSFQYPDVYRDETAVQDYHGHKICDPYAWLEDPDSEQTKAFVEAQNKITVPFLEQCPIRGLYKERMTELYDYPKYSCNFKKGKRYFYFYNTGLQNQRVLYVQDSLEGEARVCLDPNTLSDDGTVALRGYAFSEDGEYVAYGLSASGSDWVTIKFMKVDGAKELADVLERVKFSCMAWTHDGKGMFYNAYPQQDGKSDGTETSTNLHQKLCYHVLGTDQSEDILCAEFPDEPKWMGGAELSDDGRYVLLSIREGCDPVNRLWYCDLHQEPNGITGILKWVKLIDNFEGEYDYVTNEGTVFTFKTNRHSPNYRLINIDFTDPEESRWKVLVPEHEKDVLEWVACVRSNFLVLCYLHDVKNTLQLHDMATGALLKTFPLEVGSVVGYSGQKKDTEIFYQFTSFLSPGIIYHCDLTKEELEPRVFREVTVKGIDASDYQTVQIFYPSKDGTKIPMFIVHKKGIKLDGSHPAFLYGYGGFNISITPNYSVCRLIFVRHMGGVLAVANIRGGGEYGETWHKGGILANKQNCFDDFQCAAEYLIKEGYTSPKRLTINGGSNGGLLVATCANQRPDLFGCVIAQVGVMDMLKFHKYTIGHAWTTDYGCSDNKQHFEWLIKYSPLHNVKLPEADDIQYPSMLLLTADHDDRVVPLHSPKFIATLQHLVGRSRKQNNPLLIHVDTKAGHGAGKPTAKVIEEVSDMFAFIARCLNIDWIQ
As to the kind of experiment: Prolyl endopeptidase inhibitory activity in vitro. The experiment is classed as biochemical. Conditions: enzyme purified from bovine brain, pH 7.5, 37° C., substrate N-benzyloxycarbonyl-glycyl-prolyl-p-nitroanilide, read-out: Concentration for 50% inhibition IC50. As to the method:
For example, in a standard laboratory test, results in the following were given.
Prolyl endopeptidase inhibitory activity in vitro
Inhibitory activity of prolyl endopeptidase in vitro was measured by the following test system.
A mixed solution of 20 mM tris-HCl buffer (pH 7.5; 935 μl; containing 10 mM EDTA and 10 mM mercaptoethanol), a solution of a compound of the present invention in DMSO (10 μl) and a solution of prolyl endopeptidase which was purified from bovine brain (0.13 unit ml; prepared by the method described in J. Biochem., 94, 1179 (1983) ) in tris-HCl buffer (15 μl) was preincubated for 15 mins at 37° C.
To the solution, 5 mM of N-benzyloxycarbonyl-glycyl-prolyl-p-nitroanilide (40 μl) in a mixture of 40% dioxane-60% water was added. The solution was incubated for 1 min at the same temperature.
Optical absorption (a1) at 405 nm of the solution, and optical absorption (a2) at 405 nm of the solution after more 30 mins' incubation at 37° C. were measured.
Optical absorptions (b1 and b2) of the solutions using DMSO instead of the solution of the compound of the present invention were also measured.
Inhibitory ratio was calculated by the following expression and IC50 (required concentration for 50% inhibition) was obtained (See Protein, Nucleic acid and Enzyme 25(6), 513, 1980.). [formula] Toxicity
On to `CN(Cc1ccccc1)C(=O)CCC(=O)N1CCC[C@H]1C(=O)C(=O)OCc1ccccc1` [Example 7, 2-[(2S)-1-[3-(N-benzyl-N-methylcarbamoyl)propanoyl]pyrrolidin-2-yl]-2-oxoacetic acid benzyl ester], for which the IC50 is 1.2 nM.

For `CN(Cc1ccccc1)C(=O)CCC(=O)N1CCC[C@H]1C(O)C(=O)OCc1ccccc1` (mixture of isomers) [Example 6, (2RS)-2-[(2S)-1-[3-(N-benzyl-N-methylcarbamoyl)propanoyl]pyrrolidin-2-yl]-2-hydroxyacetic acid benzyl ester], the IC50 is 3000 nM.

As for `CCOC(=O)C(=O)[C@@H]1CCCN1C(=O)CCC(=O)N(C)Cc1ccccc1` [Example 2, 2-[(2S)-1-[3-(N-benzyl-N-methylcarbamoyl)propanoyl]pyrrolidin-2-yl]-2-oxoacetic acid ethyl ester], the IC50 is 3 nM.

For `CCOC(=O)C(=O)[C@@H]1CCCN1C(=O)C(CCCCCc1ccccc1)C(C)C` (mixture of isomers) [2 (h), 2-[(2S)-1-[(2RS)-2-isopropyl-7-phenylheptanoyl]pyrrolidin-2-yl]-2-oxoacetic acid ethyl ester], the IC50 is 17 nM.

As to `CCOC(=O)C(F)(F)C(=O)[C@@H]1CCCN1C(=O)CCC(=O)N(C)Cc1ccccc1` [Example 13, 3-[(2S)-1-[3-(N-benzyl-N-methylcarbamoyl)propanoyl]pyrrolidin-2-yl]-3-oxo-2,2-difluoropropionic acid ethyl ester], the IC50 came to 100 nM.

Turning to `CCC(O)[C@@H]1CCCN1C(=O)CCC(=O)N(C)Cc1ccccc1` (mixture of isomers) [Example 15, (1RS)-1-[(2S)-1-[3-(N-benzyl-N-methylcarbamoyl)propanoyl]pyrrolidin-2-yl]-propan-1-ol], the IC50 turned out to be 1500 nM.

For `CCOC(=O)C(=O)[C@@H]1CCCN1C(=O)CCC(=O)N(Cc1ccccc1)c1ccccc1` [2 (g), 2-[(2S)-1-[3-(N-benzyl-N-phenylcarbamoyl)propanoyl]pyrrolidin-2-yl]-2-oxoacetic acid ethyl ester], the IC50 amounted to 1.7 nM.

Turning to `CN(Cc1ccccc1)C(=O)CCC(=O)N1CCC[C@H]1C1OCCO1` [Example 19, 2-[(2S)-1-[3-(N-benzyl-N-methylcarbamoyl)propanoyl]pyrrolidin-2-yl]-1,3-dioxolane], the IC50 stood at 14000 nM.

With `CCOC(=O)C(=O)[C@@H]1CCCN1C(=O)CCC(=O)NC1c2ccccc2-c2ccccc21` [2 (b), 2-[(2S)-1-[3-[N-(9-fluorenyl)carbamoyl]propanoyl]pyrrolidin-2-yl]-2-oxoacetic acid ethyl ester], the IC50 is 1.8 nM.

Consider `CCOC(=O)C(=O)[C@@H]1CCCN1C(=O)CCC(=O)N(Cc1ccc(C(F)(F)F)cc1)c1ccccc1` [2 (d), 2-[(2S)-1-[3-[N-(4-trifluoromethylphenylmethyl)-N-phenylcarbamoyl]propanoyl]pyrrolidin-2-yl]-2-oxoacetic acid ethyl], for which the IC50 stood at 0.85 nM.

Regarding `CCOC(=O)C(=O)[C@@H]1CCCN1C(=O)CCC(=O)NCc1ccc(Cl)cc1Cl` [2 (l), 2-[(2S)-1-[3-[N-(2,4-dichloro-phenylmethyl)carbamoyl]propanoyl]pyrrolidin-2-yl]-2-oxoacetic acid ethyl ester], the IC50 was found to be 1.8 nM.

As for `O=C(CCCc1ccccc1)N1CSC[C@H]1C(=O)N1CSC[C@H]1C(O)c1ccccc1` (stereo partly drawn) [17 (a), (1RS)-1-phenyl-1-[(4R)-3-[(4R)-3-(4-phenylbutanoly)thiazolidin-4-ylcarbonyl]thiazolidin-4-yl]methanol], the IC50 is 180 nM.

In the case of `CCOC(=O)C(F)(F)C(O)[C@@H]1CCCN1C(=O)CCC(=O)N(C)Cc1ccccc1` (mixture of isomers) [Example 12, (3RS)-3-[(2S)-1-[3-(N-benzyl-N-methylcarbamoyl)propanoyl]pyrrolidin-2-yl]-3-hydroxy-2,2-difluoropropionic acid ethyl ester], the IC50 worked out at 69000 nM.

On to `CCC(O)[C@@H]1CSCN1C(=O)C1CCCCN1C(=O)CCc1ccccc1` (mixture of isomers) [15 (a), (1RS)-1-[(4R)-3-[1-(3-phenylpropanoyl)piperidin-2-ylcarbonyl]thiazolidin-4-yl]propan-1-ol], for which the IC50 turned out to be 120 nM.

For `CN(Cc1ccccc1)C(=O)CCC(=O)N1CCC[C@H]1C(=O)C(F)(F)F` [Example 9, 1-[(2S)-1-[3-(N-benzyl-N-methylcarbamoyl)propanoyl]pyrrolidin-2-yl]-2,2,2-trifluoroethan-1-one], the IC50 came out at 23 nM.

The test system of the next experiment is prolyl endopeptidase.
Assay: not given
Particulars: literature, J. Neurochem., 41, 69 (1983); cited from earlier work.
In the case of `O=C(NCC(=O)N1CCC[C@H]1C(=O)CCl)OCc1ccccc1` [N-benzyloxycarbonyl-glycyl-L-prolyl-chloromethane] (HELM PEPTIDE1{[O=C(OCc1ccccc1)[*:2]].G.P.[ClC[*:1]]}$$$$V2.0), the inhibit prolyl endopeptidase entry is “strongly inhibit”.

These data come from patent US5401760A, “Heterocyclic compounds” (Ono Pharmaceutical Co., Ltd., priority 1988, dated 1995).
